# Test results: US4546084A, “Biologically pure culture of Actinomadura Sp” (Bristol-Myers Company, priority 1984, dated 1985)
# Tests used:
# [1] = test system: lymphocytic leukemia P388; assay: Antitumor activity in mice against lymphocytic leukemia P388 (Table 8); format: in vivo, mice (BDF1 strain); settings: ip, significant ≥125%
# Description: The antitumor activity of BBM-1644 was determined in mice (BDF1 strain) against lymphocytic leukemia P388. Each mouse was inoculated intraperitoneally with 3×10^5 cells of the tumor. Graded doses of the antibiotic were administered to mice intraperitoneally 24 hours after tumor implantation. The treatments were given once a day on days 1, 4 and 7 (q3d ×3 schedule) or 9 consecutive days (qd 1→9 schedule).
# P388 leukemia = assay: Effect on P388 leukemia in mice, second test (Table 9); format: in vivo, CDF1 female mice; settings: D.1,4&7; for Survivors Day 5: Tox <4/6 alive; for MST % T/C: ≥125 significant
# Excerpt: Antitumor activity of BBM-1644 was also indicated by a second test against P388 leukemia in mice, the results of which are shown below in Table 9. Details of the methods used in this test have been described in Cancer Chemother. Rep. 3: 1-87 (Part 3), 1972.
# 10^6 ascites cells, ip (plus titration)
# Host: CDF1 .female. mice.
# Tox: <4/6 mice alive on Day 5.
# MST = median survival time.
# Effect: % T/C = (MST treated/MST control) × 100.
# Criteria: % T/C ≥ 125 considered significant antitumor
# lysogenic bacterium = assay: Induction of prophage in lysogenic bacterium (ILB); format: cell-based; settings: significant activity: T/C of >3.0
# Description: The ability of BBM-1644 to induce prophage in lysogenic bacterium (ILB) was determined by the method of Lein et. al. (Nature 196: 783-784, 1962) using neocarzinostatin as a reference compound. The plaque count was made on agar plates containing test material (T) and control (C). A T/C ratio of the plaque counts of greater than 3 was considered significant and the ILB activity was expressed by the minimum inducing concentration of the test compound.
# [2] = test system: Staphylococcus aureus FDA 209P; assay: In vitro antimicrobial activity, serial two-fold agar dilution; format: cell-based; settings: nutrient agar medium
# Description: (§1) The antibacterial activity of BBM-1644 was determined by the serial two-fold agar dilution method. Nutrient agar medium was used for gram-positive and gram-negative bacteria; nutrient agar medium containing 4% glycerol for acid-fast bacteria and Sabaouraud agar medium for fungi. The activity was expressed as minimum inhibitory concentration (MIC) in the agar medium and the results are shown in Table 6 along with those of neocarzinostatin.
# [3] = test system: Mycobacterium smegmatis 607 D87; assay: as above; format: cell-based; settings: nutrient agar medium containing 4% glycerol
# Description: as §1
# [4] = test system: Candida albicans IAM 4888; assay: as above; format: cell-based; settings: Sabouraud agar medium
# Description: as §1
# [5] = test system: Staphylococcus aureus Smith; assay: as above; format: cell-based; settings: nutrient agar medium
# Description: as §1
# Micrococcus flavus D12 = assay: as above; format: cell-based; settings: nutrient agar medium
# Description: as §1
# Mycobacterium phlei D88 = assay: as above; format: cell-based; settings: nutrient agar medium containing 4% glycerol
# Description: as §1
# [6] = test system: Pseudomonas aeruginosa A9930; assay: as above; format: cell-based; settings: nutrient agar medium
# Description: as §1
# [7] = test system: Streptococcus pyogenes A20201; assay: as above; format: cell-based; settings: nutrient agar medium
# Description: as §1
# [8] = test system: Bacillus subtilis PCI 219; assay: as above; format: cell-based; settings: nutrient agar medium
# Description: as §1
# Proteus vulgaris A9436 = assay: as above; format: cell-based; settings: nutrient agar medium
# Description: as §1
# Escherichia coli NIHJ = assay: as above; format: cell-based; settings: nutrient agar medium
# Description: as §1
# [9] = test system: Micrococcus luteus PCI 1001; assay: as above; format: cell-based; settings: nutrient agar medium
# Description: as §1
# [10] = test system: Klebsiella pneumoniae D-11; assay: as above; format: cell-based; settings: nutrient agar medium
# Description: as §1
substance,measurement,setting,value
Neocarzinostatin,T/C (%) in MST,"[1]; 0.01 mg/kg/day, gd 1→9",113%
same,T/C (%) in MST,"[1]; 0.03 mg/kg/day, gd 1→9",125%
same,T/C (%) in MST,"[1]; 0.03 mg/kg/day, q3d × 3",113%
same,T/C (%) in MST,"[1]; 0.1 mg/kg/day, gd 1→9",138%
same,T/C (%) in MST,"[1]; 0.1 mg/kg/day, q3d × 3",125%
same,T/C (%) in MST,"[1]; 0.3 mg/kg/day, gd 1→9",163%
same,T/C (%) in MST,"[1]; 0.3 mg/kg/day, q3d × 3",150%
same,T/C (%) in MST,"[1]; 1 mg/kg/day, q3d × 3",163%
same,AWC d.6,P388 leukemia; 0.05 mg/kg/inj IP,-1.7 gm
same,MST,P388 leukemia; 0.05 mg/kg/inj IP,12.0 days
same,Survivors Day 5,P388 leukemia; 0.05 mg/kg/inj IP,6/6
same,MST % T/C,P388 leukemia; 0.05 mg/kg/inj IP,133%
same,AWC d.6,P388 leukemia; 0.1 mg/kg/inj IP,-1.2 gm
same,MST,P388 leukemia; 0.1 mg/kg/inj IP,13.5 days
same,Survivors Day 5,P388 leukemia; 0.1 mg/kg/inj IP,6/6
same,MST % T/C,P388 leukemia; 0.1 mg/kg/inj IP,150%
same,AWC d.6,P388 leukemia; 0.2 mg/kg/inj IP,-2.5 gm
same,MST,P388 leukemia; 0.2 mg/kg/inj IP,15.0 days
same,Survivors Day 5,P388 leukemia; 0.2 mg/kg/inj IP,6/6
same,MST % T/C,P388 leukemia; 0.2 mg/kg/inj IP,167%
same,AWC d.6,P388 leukemia; 0.4 mg/kg/inj IP,-3.2 gm
same,MST,P388 leukemia; 0.4 mg/kg/inj IP,15.5 days
same,Survivors Day 5,P388 leukemia; 0.4 mg/kg/inj IP,6/6
same,MST % T/C,P388 leukemia; 0.4 mg/kg/inj IP,172%
same,AWC d.6,P388 leukemia; 0.8 mg/kg/inj IP,-4.3 gm
same,MST,P388 leukemia; 0.8 mg/kg/inj IP,10.5 days
same,Survivors Day 5,P388 leukemia; 0.8 mg/kg/inj IP,6/6
same,MST % T/C,P388 leukemia; 0.8 mg/kg/inj IP,117%
same,AWC d.6,P388 leukemia; 1.6 mg/kg/inj IP,-4.8 gm
same,MST,P388 leukemia; 1.6 mg/kg/inj IP,8.0 days
same,Survivors Day 5,P388 leukemia; 1.6 mg/kg/inj IP,6/6
same,MST % T/C,P388 leukemia; 1.6 mg/kg/inj IP,89%
same,ILB activity (T/C),lysogenic bacterium; 0.1 mcg/ml,0.7
same,ILB activity (T/C),lysogenic bacterium; 1 mcg/ml,10.8
same,ILB activity (T/C),lysogenic bacterium; 10 mcg/ml,20.4
same,ILB activity (T/C),lysogenic bacterium; 100 mcg/ml,28.6
same,MIC,[2],1.6 µg/mL
same,MIC,[3],50 µg/mL
same,MIC,[4],> 100 µg/mL
same,MIC,[5],0.8 µg/mL
same,MIC,Micrococcus flavus D12,1.6 µg/mL
same,MIC,Mycobacterium phlei D88,12.5 µg/mL
same,MIC,[6],> 100 µg/mL
same,MIC,[7],3.1 µg/mL
same,MIC,[8],3.1 µg/mL
same,MIC,Proteus vulgaris A9436,> 100 µg/mL
same,MIC,Escherichia coli NIHJ,> 100 µg/mL
same,MIC,[9],1.6 µg/mL
same,MIC,[10],> 100 µg/mL
